Experiment [1] relates to MA-CA04 virus. Further details: species or system BALB/c mice. Particulars: mouse, in vivo.
Experiment [2] deals with MA-CA04 virus. On the set-up: species or system mice. To be noted: mouse, in vivo.

Experimental findings from patent US20240261398A1 (priority 2018, published 2024) are described below.

“And” between values parts separate entries of the source, which are not always exact repeats. Equal values may be shown once.

For the compound `COC(=O)[C@H](Cc1ccccc1)NC(=O)[C@H](CC(=O)O)NCCC(C)(C)C` [Neotame], in the experiment on MA-CA04 virus [1], the “Mean value of antibody titers (Log 10 PFU/g) ± Standard deviation, Lung, 3 days after infection” value is 7.5 ± 0.3 Log 10 PFU/g and 7.5 ± 0.2 Log 10 PFU/g; the “Mean value of antibody titers (Log 10 PFU/g) ± Standard deviation, Nasal concha, 3 days after infection” value is 6.1 ± 0.05 Log 10 PFU/g and 6.3 ± 0.1 Log 10 PFU/g; the “virus titers in the nasal concha and the lung, six days after the infection” value was “no virus titers were detected in some mice”.

Regarding `O=C([O-])c1ccccc1.[Na+]` [Sodium benzoate], in the experiment with MA-CA04 virus [1], the “Mean value of antibody titers (Log 10 PFU/g) ± Standard deviation, Lung, 3 days after infection” value was 6.7 ± 0.2 Log 10 PFU/g and 7.0 ± 0.2 Log 10 PFU/g; the “Mean value of antibody titers (Log 10 PFU/g) ± Standard deviation, Nasal concha, 3 days after infection” value is 6.4 ± 0.1 Log 10 PFU/g and 6.2 ± 0.04 Log 10 PFU/g; the “virus titers in the nasal concha and the lung, six days after the infection” value was “no virus titers were detected in some mice”.

`CC(/C=C/C=C(\C)C(=O)O[C@@H]1O[C@H](CO[C@@H]2O[C@H](CO)[C@@H](O)[C@H](O)[C@H]2O)[C@@H](O)[C@H](O)[C@H]1O)=C\C=C\C=C(C)\C=C\C=C(/C)C(=O)O[C@@H]1O[C@H](CO[C@@H]2O[C@H](CO)[C@@H](O)[C@H](O)[C@H]2O)[C@@H](O)[C@H](O)[C@H]1O` [Crocin]: the “Survival rate (%)” value in the experiment with MA-CA04 virus [2] came to 50%.

As for `O.O=P([O-])([O-])OCC(O)CO.[Ca+2]` (stereo not shown), in the experiment with MA-CA04 virus [2], the “Survival rate (%)” value is 75%; the “influence on body weight (FIG. 3 A and C)” value is “the same level as the previously known adjuvant Poly(I:C)”; the “survival rate (FIG. 3 B and D)” value is listed as “the same level as Poly(I:C) or was slightly lower than Poly(I:C)”.

Take `CC(/C=C/C=C(C)/C=C/C(=O)O)=C\C=C\C=C(C)\C=C\C=C(C)\C=C\C(=O)O` (stereo in doubt) [Norbixin]: the “Mean value of antibody titers (Log 10 PFU/g) ± Standard deviation, Lung, 3 days after infection” value with MA-CA04 virus [1] was 7.2 ± 0.3 Log 10 PFU/g and 7.4 ± 0.3 Log 10 PFU/g. Moreover, in the experiment with MA-CA04 virus [2], the “Survival rate (%)” value is 50%.

Consider `Cc1cc2nc3c(=O)[nH]c(=O)nc-3n(C[C@H](O)[C@H](O)[C@H](O)CO)c2cc1C` [Riboflavin], for which the “Survival rate (%)” value in the experiment with MA-CA04 virus [2] came out at 25%.

Turning to `C[C@@H]1O[C@@H](OC[C@H]2O[C@@H](Oc3c(-c4ccc(O)c(O)c4)oc4cc(O)cc(O)c4c3=O)[C@H](O)[C@@H](O)[C@@H]2O)[C@H](O)[C@H](O)[C@H]1O` [Rutin hydrate], the “Survival rate (%)” value in the experiment on MA-CA04 virus [2] is 75%.

With `O=S([O-])[O-].[Na+].[Na+]` [Sodium sulfite], in the experiment with MA-CA04 virus [1], the “Mean value of antibody titers (Log 10 PFU/g) ± Standard deviation, Lung, 3 days after infection” value was 7.0 ± 0.1 Log 10 PFU/g; the “Mean value of antibody titers (Log 10 PFU/g) ± Standard deviation, Nasal concha, 3 days after infection” value was 6.1 ± 0.3 Log 10 PFU/g and 6.2 ± 0.2 Log 10 PFU/g.
